These results are taken from patent publication US20030091615A1, “Use of betaine to enhance exercise performance” (priority 2001, published 2003).

For the test, the system named is male subjects. The test is described as follows: Randomized placebo-controlled double blind exercise test: rehydration solution, 75 min treadmill run in 30° C. heat, then sprint to volitional exhaustion. The format is in vivo, human. From the text: Ten male subjects were selected to participate in four experimental tests, described below. The study design was a randomized placebo-controlled double blind test. These tests were identical, except that a different rehydration solution was consumed during each session. The rehydration solutions are:
(a) Non-nutritive KOOL-AID®;
(b) Non-nutritive KOOL-AID® and betaine (5 g/l);
(d) GATORADE® and betaine (5 g/l).
The order of treatment for each subject was randomized.
The following measurements were taken throughout each of the four experimental tests:
1) Hydration variables were measured each day, including urine specific gravity and color, body weight, plasma osmolity.
2) Blood variables were sampled during each trial, including, hematocrit, hemoglobin, osmolality, glucose, lactate.
3) Physiological variables were measured during each trial, such as time to exhaustion (duration of final sprint), heart rate, blood pressure, oxygen consumption, minute ventilation, mean weighted skin temperature, rectal temperature, whole body sweat rate.
4) Perceptual variables were recorded, such as rating of perceived exertion (Borg scale) during the exercise test, thermal stress during the exercise test, thirst sensation during the exercise test.
Each subject participated in four experimental tests, performed at the same time of day for each subject, using the same posture at each stage of testing. Experimental tests were randomized. Trials were conducted in an environmental chamber controlled at 30° C.
When they arrived at the test center at 7:00 a.m., the body weight was measured, a blood sample was taken and the specific gravity of the urine was measured. In general, the subjects were mildly dehydrated, losing approximately 1% body weight. […] Subsequently, thereto, they then entered an environmental chamber which was maintained at a temperature of 30° C. and they stood for thirty minutes to effect fluid and thermal equilibration.
Various measurements were taken of each subject including blood pressure, urine specific gravity, body weight, blood pressure, plasma, osmolality and a blood sample when in the environmental chamber prior to the test. Each then performed cycling and walking exercise for 60-90 minutes at 50-55% VO2max so that they each lost about 3% of body weight.
At about 9:30 a.m., they consumed one of the above fluids.
The total volume was ingested in five equal portions over 25 minutes. (This increased the body weight change to a −1.5% level). They each stood an additional twenty minutes to allow gastric emptying. Then they began a treadmill run for 75 minutes at 65% VO2max. They finished the exercise in the heat by a sprinting to volitional exhaustion at a treadmill pace that elicits 90% VO2max. At the conclusion, they stood in the environmental chamber for additional measurements during a 15 minute recovery period. They left the chamber, then ate a meal and drank fluids.
The test was repeated for each person three more times, except each time they ingested a different one of the fluids so that at the end of the test, each subject had ingested each one of the four fluids. Subjects were instructed to match the diet they ate before the initial experiment, during the three subsequent trials. […]

The structures appear in SMILES notation.

`C[N+](C)(C)CC(=O)[O-]` [betaine, trimethylglycine]: for the setting “GATORADE trials, betaine 5 g/l”, the “increased plasma lactate levels 15 minutes after the sprint” value is on record as 17%. Besides, the “increased plasma lactate levels immediately after the sprint” value (GATORADE trials, betaine 5 g/l) was 10%. Further, the “greater oxygen uptake (aerobic metabolism) while sprinting” value by setting is: (GATORADE trials, betaine 5 g/l vs GATORADE alone) 6%; (KOOL-AID trials, betaine 5 g/l vs KOOL-AID alone) “This effect was not seen”. For the same compound, where the note is “KOOL-AID trials, betaine 5 g/l”, the “increased plasma lactate levels after the sprint” value was “This effect was not seen”.
